pIC50: −log10 of the molar value. “And” between values parts separate entries of the source, which are not always exact repeats. Equal values may be shown once.
Key:
Test in all cases: cells
U2OS = format: functional, cell-based, Homo sapiens, U-2-OS; details: u-2-os;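 also: growth inhibition of human U-2-OS cells, determined with a cell viability assay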
Description: SANGER: Inhibition of human U-2-OS cell growth in a cell viability assay.

OCUB-M = format: functional, cell-based, Homo sapiens;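 also: growth inhibition of the cancer cell line, read out through a cell viability assay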
Description: SANGER: Inhibition of human OCUB-M cell growth in a cell viability assay.

SW872 = format: functional, cell-based, Homo sapiens;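 also: growth inhibition of SW872 cells, read out by a viability assay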
Description: SANGER: Inhibition of human SW872 cell growth in a cell viability assay.

NCI-H69 = format: functional, cell-based; details: Homo sapiens;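 also: growth inhibition of the cell line, read out with a cell viability assay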
Description: SANGER: Inhibition of human NCI-H69 cell growth in a cell viability assay.

AN3-CA = format: functional, cell-based; details: Homo sapiens;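 also: growth inhibition of human AN3-CA cells measured by a cell viability assay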
Description: SANGER: Inhibition of human AN3-CA cell growth in a cell viability assay.

DOK = format: functional, cell-based, Homo sapiens; details: dok;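 also: cell viability assay read-out, values reflect inhibition of cell growth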
Description: SANGER: Inhibition of human DOK cell growth in a cell viability assay.

SCC-9 = format: functional, cell-based, Homo sapiens;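 also: Read-out is a cell viability assay, with values giving inhibition of cell growth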
Description: SANGER: Inhibition of human SCC-9 cell growth in a cell viability assay.

MOLT-16 = format: functional, cell-based; details: Homo sapiens;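 also: growth inhibition of human MOLT-16 cells, read out with a cell viability assay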
Description: SANGER: Inhibition of human MOLT-16 cell growth in a cell viability assay.

P30-OHK = format: functional, cell-based; details: Homo sapiens;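 also: growth inhibition of the P30-OHK cell line, read out with a cell viability assay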
Description: SANGER: Inhibition of human P30-OHK cell growth in a cell viability assay.

KE-37 = format: functional, cell-based; details: Homo sapiens;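 also: growth inhibition of KE-37 cells, read out with a cell viability assay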
Description: SANGER: Inhibition of human KE-37 cell growth in a cell viability assay.

ESS-1 = format: functional, cell-based, Homo sapiens;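 also: growth inhibition of human ESS-1 cells, read out by a cell viability assay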
Description: SANGER: Inhibition of human ESS-1 cell growth in a cell viability assay.

RPMI-8866 = format: functional, cell-based; details: Homo sapiens
Description: SANGER: Inhibition of human RPMI-8866 cell growth in a cell viability assay.

M059J = format: functional, cell-based, Homo sapiens;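 also: growth inhibition of M059J cells, read out with a cell viability assay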
Description: SANGER: Inhibition of human M059J cell growth in a cell viability assay.

AU565 = format: functional, cell-based, Homo sapiens;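 also: cell viability assay measuring growth inhibition of human AU565 cells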
Description: SANGER: Inhibition of human AU565 cell growth in a cell viability assay.

VM-CUB-1 = format: functional, cell-based; details: Homo sapiens;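 also: cell viability assay measuring growth inhibition of the human VM-CUB-1 cell line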
Description: SANGER: Inhibition of human VM-CUB-1 cell growth in a cell viability assay.

NCI-H1355 = format: functional, cell-based, Homo sapiens;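 also: growth inhibition of human NCI-H1355 cells, read out by a cell viability assay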
Description: SANGER: Inhibition of human NCI-H1355 cell growth in a cell viability assay.

A388 = format: functional, cell-based, Homo sapiens;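 also: growth inhibition of human A388 cells, read out with a cell viability assay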
Description: SANGER: Inhibition of human A388 cell growth in a cell viability assay.

BFTC-905 = format: functional, cell-based, Homo sapiens; details: bftc-905
Description: SANGER: Inhibition of human BFTC-905 cell growth in a cell viability assay.

HMV-2 cell line = format: functional, cell-based, Homo sapiens; details: hmv-2;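 also: growth inhibition of HMV-II cells, read out with a cell viability assay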
Description: SANGER: Inhibition of human HMV-II cell growth in a cell viability assay.

C8166 = format: functional, cell-based; details: Homo sapiens;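 also: growth inhibition of human C8166 cells measured by a cell viability assay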
Description: SANGER: Inhibition of human C8166 cell growth in a cell viability assay.

KYSE-180 = format: functional, cell-based, Homo sapiens; details: kyse-180;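 also: growth inhibition of KYSE-180 cells, read out with a cell viability assay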
Description: SANGER: Inhibition of human KYSE-180 cell growth in a cell viability assay.

RKO = format: functional, cell-based, Homo sapiens;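 also: growth inhibition of human RKO cells, read out with a cell viability assay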
Description: SANGER: Inhibition of human RKO cell growth in a cell viability assay.

S-117 = format: functional, cell-based, Homo sapiens; details: s-117
Description: SANGER: Inhibition of human S-117 cell growth in a cell viability assay.

TGW = format: functional, cell-based; details: Homo sapiens;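 also: growth inhibition of human TGW cells, read out with a cell viability assay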
Description: SANGER: Inhibition of human TGW cell growth in a cell viability assay.

NMC-G1 = format: functional, cell-based, Homo sapiens;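 also: growth inhibition of the NMC-G1 cell line, measured with a cell viability read-out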
Description: SANGER: Inhibition of human NMC-G1 cell growth in a cell viability assay.

SW-620 = format: functional, cell-based, Homo sapiens; details: sw-620;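 also: growth inhibition of human SW-620 cells, measured by a cell viability assay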
Description: SANGER: Inhibition of human SW620 cell growth in a cell viability assay.

SiHa = format: functional, cell-based, Homo sapiens;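 also: Viability-based readout of growth inhibition in SiHa cells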
Description: SANGER: Inhibition of human SiHa cell growth in a cell viability assay.

786-0 = format: functional, cell-based, Homo sapiens
Description: SANGER: Inhibition of human 786-0 cell growth in a cell viability assay.

NCI-H82 = format: functional, cell-based; details: Homo sapiens;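 also: growth inhibition of NCI-H82 cells, measured with a cell viability readout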
Description: SANGER: Inhibition of human NCI-H82 cell growth in a cell viability assay.

KU812 cell line = format: functional, cell-based; details: Homo sapiens;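 also: growth inhibition of KU812 cells, read out with a cell viability assay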
Description: SANGER: Inhibition of human KU812 cell growth in a cell viability assay.

KARPAS-45 = format: functional, cell-based; details: Homo sapiens;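 also: inhibition of cell line growth, read out through a viability assay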
Description: SANGER: Inhibition of human KARPAS-45 cell growth in a cell viability assay.

KS-1 = format: functional, cell-based, Homo sapiens;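 also: growth inhibition of KS-1 cells, read out with a cell viability assay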
Description: SANGER: Inhibition of human KS-1 cell growth in a cell viability assay.

NCI-H1755 = format: functional, cell-based, Homo sapiens;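 also: cell viability readout used to measure growth inhibition of NCI-H1755 cells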
Description: SANGER: Inhibition of human NCI-H1755 cell growth in a cell viability assay.

A3-KAW = format: functional, cell-based; details: Homo sapiens;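 also: growth inhibition of human A3-KAW cells, read out with a cell viability assay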
Description: SANGER: Inhibition of human A3-KAW cell growth in a cell viability assay.

D-502MG = format: functional, cell-based, Homo sapiens
Description: SANGER: Inhibition of human D-502MG cell growth in a cell viability assay.

KLE = format: functional, cell-based, Homo sapiens;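 also: growth inhibition of human KLE cells, read out with a cell viability assay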
Description: SANGER: Inhibition of human KLE cell growth in a cell viability assay.

SF-126 = format: functional, cell-based, Homo sapiens;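 also: growth inhibition of human SF126 cells, read out with a cell viability assay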
Description: SANGER: Inhibition of human SF126 cell growth in a cell viability assay.

MeWo = format: functional, cell-based, Homo sapiens; details: mewo;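 also: growth inhibition of MeWo cells, determined by a cell viability readout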
Description: SANGER: Inhibition of human Mewo cell growth in a cell viability assay.

JEG-3 = format: functional, cell-based, Homo sapiens; details: jeg-3;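 also: growth inhibition of human JEG-3 cells, read out with a cell viability assay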
Description: SANGER: Inhibition of human JEG-3 cell growth in a cell viability assay.

CaR-1 = format: functional, cell-based, Homo sapiens; details: car-1;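 also: growth inhibition of human CaR-1 cancer cells, read out with a cell viability assay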
Description: SANGER: Inhibition of human CaR-1 cell growth in a cell viability assay.

NCI-H292 = format: functional, cell-based, Homo sapiens; details: nci-h292;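 also: growth inhibition of NCI-H292 cells, read out with a cell viability assay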
Description: SANGER: Inhibition of human NCI-H292 cell growth in a cell viability assay.

M14 = format: functional, cell-based, Homo sapiens; details: m14;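 also: growth inhibition of M14 cells, read out with a cell viability assay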
Description: SANGER: Inhibition of human M14 cell growth in a cell viability assay.

SK-LU-1 = format: functional, cell-based, Homo sapiens; details: sk-lu-1;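 also: cell viability assay measuring growth inhibition of human SK-LU-1 cells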
Description: SANGER: Inhibition of human SK-LU-1 cell growth in a cell viability assay.

EW-3 = format: functional, cell-based; details: Homo sapiens;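 also: cell viability assay read-out, IC50 reflects inhibition of growth of the EW-3 cells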
Description: SANGER: Inhibition of human EW-3 cell growth in a cell viability assay.

PC-3 = format: functional, cell-based, Homo sapiens; details: pc-3;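 also: cell viability assay measuring growth inhibition of PC-3 cells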
Description: SANGER: Inhibition of human PC-3 cell growth in a cell viability assay.

CAL-51 = format: functional, cell-based, Homo sapiens; details: cal-51;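 also: human CAL-51 cell line, growth inhibition read out via a cell viability assay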
Description: SANGER: Inhibition of human CAL-51 cell growth in a cell viability assay.

HCE-4 = format: functional, cell-based, Homo sapiens;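 also: cell viability assay measuring inhibition of growth in the human HCE-4 cell line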
Description: SANGER: Inhibition of human HCE-4 cell growth in a cell viability assay.

C2BBe1 = format: functional, cell-based, Homo sapiens;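 also: growth inhibition of C2BBe1 cells, read out through a viability assay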
Description: SANGER: Inhibition of human C2BBe1 cell growth in a cell viability assay.

EW-18 = format: functional, cell-based; details: Homo sapiens;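 also: growth inhibition of EW-18 cells, read out by a cell viability assay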
Description: SANGER: Inhibition of human EW-18 cell growth in a cell viability assay.

OVCAR-4 = format: functional, cell-based, Homo sapiens;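 also: growth inhibition of human OVCAR-4 cells, measured with a cell viability assay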
Description: SANGER: Inhibition of human OVCAR-4 cell growth in a cell viability assay.

HCC1954 = format: functional, cell-based, Homo sapiens;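 also: growth inhibition of human HCC1954 cells, read out with a cell viability assay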
Description: SANGER: Inhibition of human HCC1954 cell growth in a cell viability assay.

COLO-668 = format: functional, cell-based, Homo sapiens
Description: SANGER: Inhibition of human COLO-668 cell growth in a cell viability assay.

CAPAN-1 = format: functional, cell-based, Homo sapiens; details: capan-1;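 also: growth suppression of CAPAN-1 cells, read out by a cell viability assay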
Description: SANGER: Inhibition of human CAPAN-1 cell growth in a cell viability assay.

SMILES: Cc1cc([C@@H](C)Nc2ccccc2C(=O)O)c2nc(N3CCOCC3)cc(=O)n2c1 [AZD-6482]
- pIC50 (U2OS): < 5.29 and 5.34
- pIC50 (OCUB-M; ocub-m): 5.80 and 6.14
- pIC50 (SW872; sw872): < 5.29 and 5.51
- pIC50 (NCI-H69): < 5.29
- pIC50 (AN3-CA): 5.44
- pIC50 (DOK): 5.41 and 5.82
- pIC50 (SCC-9; Homo sapiens, SCC-9): 6.07
- pIC50 (SCC-9; scc-9): 6.04
- pIC50 (MOLT-16): 5.36
- pIC50 (P30-OHK): 5.97
- pIC50 (KE-37): < 5.29
- pIC50 (ESS-1; Homo sapiens, ESS-1): < 5.29
- pIC50 (ESS-1; ess-1): < 5.29
- pIC50 (RPMI-8866): < 5.29
- pIC50 (M059J; Homo sapiens, M059J): < 5.29
- pIC50 (M059J; m059j): < 5.29
- pIC50 (AU565; Homo sapiens, AU565): < 5.29
- pIC50 (AU565; au565): < 5.29
- pIC50 (VM-CUB-1): < 5.29
- pIC50 (NCI-H1355; Homo sapiens, NCI-H1355): < 5.29
- pIC50 (NCI-H1355; nci-h1355): < 5.29
- pIC50 (A388; a388): < 5.29
- pIC50 (BFTC-905): < 5.29 and 5.38
- pIC50 (HMV-2 cell line): < 5.29
- pIC50 (C8166): < 5.29
- pIC50 (KYSE-180): < 5.29
- pIC50 (RKO; Homo sapiens, RKO): 5.51
- pIC50 (RKO; rko): 5.50
- pIC50 (S-117): < 5.29
- pIC50 (TGW): < 5.29
- pIC50 (NMC-G1; Homo sapiens, NMC-G1): < 5.29
- pIC50 (NMC-G1; nmc-g1): < 5.29
- pIC50 (SW-620): < 5.29
- pIC50 (SiHa; Homo sapiens, SiHa): < 5.29
- pIC50 (SiHa; siha): < 5.29
- pIC50 (786-0): 5.70
- pIC50 (786-0; Homo sapiens): 5.88
- pIC50 (NCI-H82): < 5.29
- pIC50 (KU812 cell line): 5.80
- pIC50 (KARPAS-45): 5.48
- pIC50 (KS-1; Homo sapiens, KS-1): < 5.29
- pIC50 (KS-1; ks-1): < 5.29
- pIC50 (NCI-H1755; Homo sapiens, NCI-H1755): 5.49
- pIC50 (NCI-H1755; nci-h1755): 5.48
- pIC50 (A3-KAW): < 5.29
- pIC50 (D-502MG; d-502mg): < 5.29
- pIC50 (KLE; kle): < 5.29
- pIC50 (SF-126; sf-126): 5.35 and < 5.29
- pIC50 (MeWo): < 5.29 and 5.50
- pIC50 (JEG-3): < 5.29
- pIC50 (CaR-1): < 5.29
- pIC50 (NCI-H292): 5.44 and 5.81
- pIC50 (M14): < 5.29
- pIC50 (SK-LU-1): < 5.29
- pIC50 (EW-3): < 5.29
- pIC50 (PC-3): < 5.29
- pIC50 (CAL-51): < 5.29
- pIC50 (HCE-4; hce-4): < 5.29
- pIC50 (C2BBe1; Homo sapiens, C2BBe1): < 5.29
- pIC50 (C2BBe1; c2bbe1): < 5.29
- pIC50 (EW-18): < 5.29
- pIC50 (OVCAR-4; ovcar-4): < 5.29
- pIC50 (HCC1954; Homo sapiens, HCC1954): 5.30
- pIC50 (HCC1954; hcc1954): < 5.29
- pIC50 (COLO-668; colo-668): < 5.29
- pIC50 (CAPAN-1): < 5.29

SMILES: CO[C@H]1C[C@@H]2CC[C@@H](C)[C@@](O)(O2)C(=O)C(=O)N2CCCC[C@H]2C(=O)O[C@H]([C@H](C)C[C@@H]2CC[C@@H](O)[C@H](OC)C2)CC(=O)[C@H](C)/C=C(\C)[C@@H](O)[C@@H](OC)C(=O)[C@H](C)C[C@H](C)/C=C/C=C/C=C/1C [SIROLIMUS]
- pIC50 (OCUB-M; Homo sapiens, OCUB-M): > 9.41
- pIC50 (SW872; Homo sapiens, SW872): 9.07
- pIC50 (NCI-H69): < 7.00
- pIC50 (MOLT-16): < 7.00
- pIC50 (P30-OHK): < 7.00
- pIC50 (KE-37): 7.79
- pIC50 (RPMI-8866): < 7.00
- pIC50 (NCI-H1355; Homo sapiens, NCI-H1355): 9.00
- pIC50 (A388; Homo sapiens, A388): 7.35
- pIC50 (C8166): < 7.00
- pIC50 (RKO; Homo sapiens, RKO): 7.30
- pIC50 (TGW): < 7.00
- pIC50 (NMC-G1; Homo sapiens, NMC-G1): 7.47
- pIC50 (NCI-H82): < 7.00
- pIC50 (KU812 cell line): 8.70
- pIC50 (KARPAS-45): < 7.00
- pIC50 (KS-1; Homo sapiens, KS-1): 8.61
- pIC50 (A3-KAW): 8.52
- pIC50 (D-502MG; Homo sapiens, D-502MG): < 7.00
- pIC50 (KLE; Homo sapiens, KLE): < 7.00
- pIC50 (SF-126; Homo sapiens, SF-126): 7.52
- pIC50 (EW-3): < 7.00
- pIC50 (HCE-4; Homo sapiens, HCE-4): < 7.00
- pIC50 (C2BBe1; Homo sapiens, C2BBe1): < 7.00
- pIC50 (EW-18): < 7.00
- pIC50 (OVCAR-4; Homo sapiens, OVCAR-4): < 7.00
- pIC50 (COLO-668; Homo sapiens, COLO-668): < 7.00

SMILES: CCC(=O)N1CCN(c2ccc(-n3c(=O)ccc4cnc5ccc(-c6cnc7ccccc7c6)cc5c43)cc2C(F)(F)F)CC1 [TORIN1]
- pIC50 (OCUB-M; Homo sapiens, OCUB-M): 8.71
- pIC50 (SW872; Homo sapiens, SW872): 7.65
- pIC50 (NCI-H69): 6.30
- pIC50 (MOLT-16): 7.79
- pIC50 (P30-OHK): < 5.92
- pIC50 (KE-37): 7.80
- pIC50 (RPMI-8866): < 5.92
- pIC50 (NCI-H1355; Homo sapiens, NCI-H1355): 7.78
- pIC50 (A388; Homo sapiens, A388): 7.16
- pIC50 (C8166): < 5.92
- pIC50 (RKO; Homo sapiens, RKO): 7.81
- pIC50 (TGW): 6.43
- pIC50 (NMC-G1; Homo sapiens, NMC-G1): 7.46
- pIC50 (NCI-H82): 6.85
- pIC50 (KU812 cell line): 7.89
- pIC50 (KARPAS-45): 6.11
- pIC50 (KS-1; Homo sapiens, KS-1): 7.86
- pIC50 (A3-KAW): 7.21
- pIC50 (D-502MG; Homo sapiens, D-502MG): < 5.92
- pIC50 (KLE; Homo sapiens, KLE): 7.18
- pIC50 (SF-126; Homo sapiens, SF-126): 7.36
- pIC50 (EW-3): 6.66
- pIC50 (HCE-4; Homo sapiens, HCE-4): 7.41
- pIC50 (C2BBe1; Homo sapiens, C2BBe1): 6.86
- pIC50 (EW-18): < 5.92
- pIC50 (OVCAR-4; Homo sapiens, OVCAR-4): 7.51
- pIC50 (COLO-668; Homo sapiens, COLO-668): 6.53

SMILES: Cc1cc(Nc2cc(N3CCN(C)CC3)nc(Sc3ccc(NC(=O)C4CC4)cc3)n2)n[nH]1 [TOZASERTIB]
- pIC50 (OCUB-M; Homo sapiens, OCUB-M): 6.77
- pIC50 (SW872; Homo sapiens, SW872): < 5.70
- pIC50 (NCI-H69): < 5.70
- pIC50 (MOLT-16): 5.87
- pIC50 (P30-OHK): < 5.70
- pIC50 (KE-37): 6.28
- pIC50 (RPMI-8866): < 5.70
- pIC50 (NCI-H1355; Homo sapiens, NCI-H1355): < 5.70
- pIC50 (A388; Homo sapiens, A388): 6.47
- pIC50 (C8166): < 5.70
- pIC50 (RKO; Homo sapiens, RKO): 6.51
- pIC50 (TGW): < 5.70
- pIC50 (NMC-G1; Homo sapiens, NMC-G1): < 5.70
- pIC50 (NCI-H82): < 5.70
- pIC50 (KU812 cell line): < 5.70
- pIC50 (KARPAS-45): < 5.70
- pIC50 (KS-1; Homo sapiens, KS-1): 6.62
- pIC50 (A3-KAW): < 5.70
- pIC50 (D-502MG; Homo sapiens, D-502MG): < 5.70
- pIC50 (KLE; Homo sapiens, KLE): < 5.70
- pIC50 (SF-126; Homo sapiens, SF-126): 6.02
- pIC50 (EW-3): < 5.70
- pIC50 (HCE-4; Homo sapiens, HCE-4): 6.06
- pIC50 (C2BBe1; Homo sapiens, C2BBe1): < 5.70
- pIC50 (EW-18): < 5.70
- pIC50 (OVCAR-4; Homo sapiens, OVCAR-4): < 5.70
- pIC50 (COLO-668; Homo sapiens, COLO-668): < 5.70

Source: ChEMBL document CHEMBL1201861, “Genomics of Drug Sensitity in Cancer screening data, Wellcome Trust Sanger Institute”
